# Source: patent US20230033911A1, “BIOACTIVE COMPOSITIONS AND METHODS OF USE THEREOF” (Ingenious Ingredients, LP, priority 2021, published 2023)
# Legend:
# Assay type in all cases: in vivo
# [1] = tested on: Swiss Albino mice; test: Cook's pole climbing test after scopolamine-induced amnesia; conditions: for Escape latency: Cook's pole climbing test, scopolamine i.p., n=8; for Escape latency, faster than control: relative to vehicle control
# Protocol: Behavioral studies were conducted in mice to examine the learning and memory ability by using Cook's pole test.
# (§1) Thirty-two 8-week-old male Swiss Albino mice were housed in an animal room at a constant temperature (22±3° C.) and humidity (30%-70%) under a 12:12 h light-dark cycle with standard laboratory diet (Purina 5L79, Rat and Mouse 18% protein; PMI Nutrition International, Brentwood, Mo., USA). Distilled water was provided ad libitum. All animal experiments were reviewed and approved by the Institutional Animal Ethical Committee (IAEC) of Radiant Research Services Pvt. Ltd (Bangalore, India). All research was conducted in accordance with the guidelines of the committee for the purpose of control and supervision of experiments on animals.
# (§2) After one week of acclimation, the animals were randomly divided by body weight into four groups (n=8 per group in each test) for oral treatment once a day, at approximately same time each day (±1 hour), for 7 consecutive days: (1) vehicle control or (2) paraxanthine or (3) tyrosine or (4) tyrosine plus paraxanthine. The dose administered to the mice was calculated using US Food and Drug Administration for human equivalence doses (HED), assuming a human weight of 60 kg. The following HED was used in this study: 100 mg paraxanthine (ENFINITY®, Ingenious Ingredients, L.P Lewisville, Tex., USA; mouse dose: 20.5 mg/kg bw/day) or 500 mg tyrosine (mouse dose: 102.75 mg/kg bw/day), or 500 mg tyrosine (mouse dose: 102.75 mg/kg bw/day) plus 100 mg paraxanthine (ENFINITY®, Ingenious Ingredients, L.P Lewisville, Tex., USA; mouse dose: 20.5 mg/kg bw/day). 0.5% Carboxy Methyl Cellulose sodium was used as vehicle and the test item formulations were prepared daily. Dosing was conducted via oral gavage using disposable polypropylene syringes with sterilized stainless steel gavage tubes. Food intake was monitored daily while water intake was ad libitum.
# Mice were trained in such a way that the animal had to climb the pole (shock free zone) within 30 seconds to avoid a shock. The shock was preceded by a buzzer that lasted for 15 seconds. The animals were trained to climb the pole at the sound of the buzzer (conditioned avoidance response). At particular intervals, 20 trials were given for each animal and average of the shock avoidance and mistakes were recorded. Trained animals were assayed by conditioned avoidance responses.
# Amnesia was induced by using the scopolamine injection. Scopolamine is an anti-cholinergic and is an attractive amnesic agent for discerning the action of candidate anti amnesic drugs. Scopolamine is a non-selective post synaptic muscarinic receptor blocker and can cause cognitive impairments in rodents and humans via decreasing the effectiveness of ACH in the CNS in animals and humans. Scopolamine can induce the significant deficits in cognitive performance on behavioral tests which makes it a valid pharmacological model for inducing cognitive deficits. In this study to evaluate the cognitive effect, the mice were injected with scopolamine intraperitoneally to induce memory deficits.
# [2] = tested on: Swiss Albino mice; test: Forelimb grip strength test; conditions: oral once a day for 28 days; measured on day 0 and day 28, one hour after treatment
# Protocol: as §1
# After one week of acclimation, the animals were randomly divided by body weight into four groups (n=8 per group in each test) for oral treatment once a day, at approximately same time each day (±1 hour), for 28 consecutive days: (1) vehicle control or (2) paraxanthine or (3) tyrosine or (4) tyrosine plus paraxanthine. The dose administered to the mice was calculated using US Food and Drug Administration for human equivalence doses (HED), assuming a human weight of 60 kg. […] Food intake was monitored daily while water intake was ad libitum.
# The forelimb grip strength was measured on day 0 and day 28 by using a stainless-steel grill to assess muscle strength (Orchid Scientific & Innovative India Pvt Ltd, India). Grip strength was measured one hour after treatment. […]
# [3] = tested on: Swiss Albino mice; test: Force swim test, paraxanthine plus tyrosine study (Example 2); conditions: oral once a day for 28 days; for Duration of mobility/active swimming: 30 min force swim on 28th day, n=8
# Protocol: as §1
# as §2, with “for 28” for “for 7”
# During treatment period, training was accomplished on a swimming chamber at a moderate room temperature for 15 mins. […] The parameters measured were total time spent in active swimming (the total duration during which the animal swims throughout the experimental period).
# [4] = tested on: Swiss Albino mice; test: Force swim test, paraxanthine plus taurine study (Example 3); conditions: 30 min force swim on 28th day; oral once a day for 28 days; n=8
# Protocol: as §1, with “Twenty-four” for “Thirty-two”
# as §2, with “into three” for “into four”, “for 28” for “for 7”, “(1) paraxanthine” for “(1) vehicle control”, “(2) taurine” for “(2) paraxanthine”, “(3) taurine” for “(3) tyrosine or (4) tyrosine”, “mg taurine” for “mg tyrosine”
# During treatment period, training was accomplished on a swimming chamber at a moderate room temperature for 15 mins. The animals were adapted to this procedure daily 1 hr after dosing for 5 days in a week during the treatment period. On 28th day of respective treatment of all the animals were subjected to force swim test. Animals were forced to swim individually for 30 min in a glass jar of height 20 cm, diameter 10 cm, and filled with fresh water to a depth of 15 cm at room temperature. The parameter measured was total time spent in active swimming (the total duration during which the animal swims throughout the experimental period) and duration of immobility (the total time during which the animal is immobile).
Structure (SMILES),Escape latency ([1]; oral once a day for 7 days) [s],"Effect on scopolamine-induced amnesia, memory and learning (in words) ([1]; oral once a day for 7 days)","Escape latency, faster than control [1] [%]","Forelimb grip strength (in words, FIG. 1) [2]",Duration of mobility/active swimming [3] [min],Energy and mood (in words) ([3]; force swim test on 28th day),Duration of immobility [4] [min],Duration of mobility/active swimming [4] [min],"Escape latency, slower than paraxanthine ([1]; relative to paraxanthine group) [%]"
Cn1c(=O)[nH]c2ncn(C)c2c1=O [paraxanthine],16.38 ± 2.33,reversal of amnesia induced by scopolamine and improved memory and learning,46.3,improved strength over control,8.63 ± 1.92,improved energy and mood,21.38 ± 1.92,8.63 ± 1.92,–
NCCS(=O)(=O)O [taurine],–,–,–,–,–,–,21.50 ± 2.20,8.50 ± 2.20,–
N[C@@H](Cc1ccc(O)cc1)C(=O)O [tyrosine],8.25 ± 1.04,–,30.6,improved strength at a lesser degree,8.88 ± 1.46,–,–,–,29.3
